These results are taken from publication PMC3878165 (Bioorganic & Medicinal Chemistry Letters, 2013).

The assay concerns the target SARS-CoV 3CLpro (Severe acute respiratory syndrome coronavirus, UniProt P0C6U8). The format is biochemical.

Each structure is given as a SMILES string.

As for `CC(=O)Nc1ccc(N(C(=O)Cn2nnc3ccccc32)C(C(=O)NC(C)(C)C)c2ccsc2)cc1` (centres unmarked) [13a], the “3CLpro activity in words” value is “moderate micromolar activity”.

Regarding `CC(C)(C)NC(=O)C(c1ccsc1)N(C(=O)Cn1nnc2ccccc21)c1ccc(NS(C)(=O)=O)cc1` (centres unmarked) [13b], the loss in inhibition/activity result is “three-fold”.

For the compound `CC(C)(C)NC(=O)C(c1ccsc1)N(C(=O)Cn1nnc2ccccc21)c1ccc(NC(=O)C(C)(C)C)cc1` (centres unmarked) [13e], the loss in inhibition/activity entry was “three-fold”.

With `CC(C)(C)NC(=O)C(c1ccsc1)N(C(=O)Cn1nnc2ccccc21)c1ccc(NC(=O)C2CC2)cc1` (centres unmarked) [13f], the “3CLpro activity in words” value is listed as “loss of inhibition”.

Consider `CC(C)(C)NC(=O)C(c1ccsc1)N(C(=O)Cn1nnc2ccccc21)c1ccc(NC(=O)C2CCCCC2)cc1` (centres unmarked) [13h], for which the “3CLpro activity in words” value is reported as “loss of inhibition”.

Consider `CC(C)COC(=O)Nc1ccc(N(C(=O)Cn2nnc3ccccc32)C(C(=O)NC(C)(C)C)c2ccsc2)cc1` (centres unmarked) [13l], for which the “3CLpro activity in words” value was “weak or inactive”.

`O=C(Nc1ccc(N(Cc2ccsc2)C(=O)Cn2nnc3ccccc32)cc1)C1CCCCC1` [16g]: the “3CLpro activity in words” value is “weak inhibitor”.

In the case of `O=C(Nc1ccc(N(Cc2ccsc2)C(=O)Cn2nnc3ccccc32)cc1)c1ccccc1` [16h], the “3CLpro activity in words” value is on record as “lack of activity”.

Regarding `CNc1ccc(N(Cc2ccsc2)C(=O)Cn2nnc3ccccc32)cc1` [16j], the “3CLpro activity in words” value is reported as “potency comparable to probe ML300”.

In the case of `O=C(Cn1nnc2ccccc21)N(Cc1ccsc1)c1ccc(NCc2ccccc2)cc1` [16k], the “3CLpro activity in words” value is “potency comparable to probe ML300”.

`COc1ncc(-c2ccc(N(Cc3ccsc3)C(=O)Cn3nnc4ccccc43)cc2)cn1` [17e]: the “3CLpro activity in words” value is recorded as “micromolar activity”.
